Measured values as given in article PMC4503722, “Novel Phenotypic Outcomes Identified for a Public Collection of Approved Drugs from a Publicly Accessible Panel of Assays” (PLoS ONE, 2015).
Like-named read-outs stand apart in the source and are kept apart here.

What was measured:
[1] = tested on: nuclear β-catenin in C2C12 cells; test: cells; type: cell-based
INS-1E cells = test: cells; type: cell-based, rat
DLD-1 = test: cells; type: cell-based
SW480 = test: cells; type: cell-based
HCT116 = test: cells; type: cell-based
[2] = tested on: HCT116 cells treated with a GSK3β inhibitor; test: cells; type: cell-based
NCI-H716 cells = test: cells; type: cell-based, Human; conditions: for EC50: read-out: GLP 1 Secretion
HeLa cells = test: cells; type: cell-based; conditions: for EC50: read-out: CellCycle G2/M
[3] = tested on: ECFC/ADSC co-culture cell nuclei number
[4] = tested on: endothelial tube formation in co-cultures of ECFCs and ADSCs treated with VEGF; test: cells; type: cell-based, human; conditions: for IC50: read-out: Anti-Angiogenesis
Colo320 = test: cells; type: cell-based
HT-29 = test: cells; type: cell-based; conditions: assay number 28; basal
RKO = test: cells; type: cell-based
SNU-C1 = test: cells; type: cell-based
[5] = Homo sapiens, DLD-1, read-out: Basal_Viability ATP DLD-1
[6] = Homo sapiens, HCT-116, read-out: GSK3b inh pretreated_Viability ATP HCT116
[7] = Rattus norvegicus, INS-1E; read-out: Insulin Secretion
[8] = Mus musculus, C2C12, IC50 / EC50, C2C12 beta-catenin translocation, read-out: Wnt Pathway
[9] = Rattus norvegicus; IC50 / EC50; INS-1E; read-out: Insulin Secretion
[10] = Homo sapiens, DLD-1, basal, read-out: Basal_Viability ATP DLD-1
[11] = Homo sapiens, SW480, basal, read-out: Basal_Viability ATP SW480
[12] = Homo sapiens, HCT-116, basal, read-out: Basal_Viability ATP HCT116
[13] = Homo sapiens, HCT-116, GSK3b inhibitor pretreated, read-out: GSK3b inh pretreated_Viability ATP HCT116
[14] = read-out: Basal_Viability ATP HCT116
[15] = Homo sapiens, HeLa, IC50 / EC50, HeLa

CN(C)c1ccc2nc3ccc(=[N+](C)C)cc-3sc2c1 [Methylene blue] gave an EC50 ([1]; Mus musculus, C2C12, read-out: Wnt Pathway) of over 10 µM, an EC50 (INS-1E cells; Rattus norvegicus, INS-1E, read-out: Insulin Secretion) of over 10 µM and an IC50 (DLD-1; [5]) of over 20 µM. It also gave an IC50 (SW480; Homo sapiens, SW480, read-out: Basal_Viability ATP SW480) of 2.68 µM, an IC50 (HCT116; Homo sapiens, HCT-116, read-out: Basal_Viability ATP HCT116) of 2.93 µM and an IC50 [2, 6] of 1.39 µM.

With CNC(=O)c1cc(Oc2ccc(NC(=O)Nc3ccc(Cl)c(C(F)(F)F)c3)cc2)ccn1 [Sorafenib tosilate] the EC50 ([1]; Mus musculus, C2C12, S2 Table, module primary assay, 20 / 20.1 codes per legend, read-out: Wnt Pathway) was over 10 µM, the EC50 (INS-1E cells; [7]) was over 10 µM and the EC50 (NCI-H716 cells; Homo sapiens, NCI-H716) was over 10 µM. The EC50 (HeLa cells; Homo sapiens, HeLa, S2 Table, HeLa, 20 = no response at highest concentration) was over 10 µM and the IC50 [2, 6] was 1.12 µM.

Clc1ccc(COC(Cn2ccnc2)c2ccc(Cl)cc2Cl)cc1.O=[N+]([O-])O (stereo not shown) [NCGC00018258-10] was tested, and the “hNCI-H716 GLP1 Secretion IC50/EC50” value (NCI-H716 cells; assay number 12) was 25.6136 µM and the “VEGF_ADSC\ECFC Angio Hoechst NucArea IC50/EC50” value [3] was 9.932 µM.

Work on Cc1c(C)n(CCN(C)C)c2ccc(C(=O)OCCN(C)C)cc12 [Amindocate] yielded an EC50 [1, 8] of over 10 µM, an EC50 (INS-1E cells; [9]) of over 10 µM and an EC50 (NCI-H716 cells; Homo sapiens, IC50 / EC50, NCI-H716) of 1.2 µM. It also gave an IC50 (DLD-1; [10]) of over 20 µM, an IC50 (SW480; [11]) of 10.2 µM and an IC50 (HCT116; [12]) of over 20 µM. It also gave an IC50 [2, 13] of over 20 µM.

In the case of Oc1c(Cl)cc(Cl)c(Cl)c1Cc1c(O)c(Cl)cc(Cl)c1Cl, the EC50 ([1]; read-out: Wnt Pathway) is reported as over 10 µM, the EC50 (INS-1E cells; read-out: Insulin Secretion) is reported as over 10 µM and the EC50 (NCI-H716 cells) is reported as over 10 µM. For the same molecule, the EC50 (HeLa cells) was over 10 µM and the IC50 (HCT116; [14]) was 0.0312 µM.

With COc1ccc2c(c1)C(=O)N(CCc1ccc(S(=O)(=O)NC(=O)NC3CCCCC3)cc1)C(=O)C2(C)C [gliquidone, reference compound] the EC50 ([1]; Mus musculus, C2C12, Table 2, C2C12, […], 20 / 20.1 coded, read-out: Wnt pot. EC50) was over 10 µM, the EC50 (INS-1E cells; Rattus norvegicus, INS-1E; read-out: Ins. sec. EC50) was 0.23 µM and the EC50 (INS-1E cells; [7]) was 0.23 µM. For the same molecule, the IC50 (DLD-1; Homo sapiens, DLD-1, 72 h, Table 2, 72 h, Cell TiterGlo, non-adherent, 20 coded, read-out: DLD-1 viab. IC50) was 5.1 µM, the IC50 (DLD-1; Homo sapiens, DLD-1, basal, DLD-1, read-out: Basal_Viability ATP DLD-1) was 5.11 µM and the IC50 (SW480; Homo sapiens, SW480, 72 h, Table 2, 72 h, Cell TiterGlo, non-adherent, 20 coded, read-out: SW480 viab. IC50) was 5.5 µM. For the same molecule, the IC50 (SW480; Homo sapiens, SW480, basal, SW480, read-out: Basal_Viability ATP SW480) was 5.5 µM, the IC50 (HCT116; Homo sapiens, HCT-116, 72 h, read-out: HCT-116 viab. IC50, Table 2, basal, 72 h, Cell TiterGlo, non-adherent, 20 coded) was 10.1 µM and the IC50 (HCT116; Homo sapiens, HCT-116, basal, HCT116, read-out: Basal_Viability ATP HCT116) was 10.1 µM. It also gave an IC50 ([2]; Homo sapiens, HCT-116, read-out: HCT-116 (GSK3β) viab. IC50, Table 2, GSK3β inhibitor LY2090314 20 nM, 72 h, Cell TiterGlo, 20 coded) of 7 µM and an IC50 ([2]; Homo sapiens, HCT-116, HCT116 pretreated with GSK3b inhibitor, read-out: GSK3b inh pretreated_Viability ATP HCT116) of 7.03 µM.

Molecule O=C(CCBr)N1CCN(C(=O)CCBr)CC1 [Abbott brand of pipobroman] has an IC50 [4] of 1.37 µM, an EC50 ([1]; read-out: Wnt Pathway) of over 10 µM and an EC50 (INS-1E cells; read-out: Insulin Secretion) of over 10 µM. For the same molecule, the EC50 (HeLa cells) was over 10 µM, the IC50 (DLD-1; read-out: Basal_Viability ATP DLD-1) was over 20 µM and the IC50 (SW480; read-out: Basal_Viability ATP SW480) was over 20 µM. For the same molecule, the IC50 (HCT116; [14]) was over 20 µM and the IC50 ([2]; read-out: GSK3b inh pretreated_Viability ATP HCT116) was 14 µM.

CC(=O)O[C@@]12CO[C@@H]1C[C@H](O)[C@@]1(C)C(=O)[C@H](O)C3=C(C)[C@@H](OC(=O)[C@H](O)[C@@H](NC(=O)OC(C)(C)C)c4ccccc4)C[C@@](O)([C@@H](OC(=O)c4ccccc4)[C@H]21)C3(C)C [NCGC00181306-04] was tested, and the “VEGF_ADSC\ECFC Angio CD31 TubeArea IC50/EC50” value [4] was 0.001 µM, the “WntCondMedia_bCatenin C2C12 IC50/EC50” value ([1]; assay number 5, concentration response) was 0.0652 µM and the “Hela CellCycMod PI 2N IC50/EC50” value (HeLa cells; assay number 14, 2N) was 0.0031 µM. For the same molecule, the “Hela CellCycMod PI S Phase IC50/EC50” value (HeLa cells; assay number 15, S phase) was over 10 µM, the “Hela CellCycMod PI 4N IC50/EC50” value (HeLa cells; assay number 16, 4N) was 0.00335 µM and the “Hela CellCycMod PI MI IC50/EC50” value (HeLa cells; assay number 17, MI) was 0.00317 µM. For the same molecule, the “Hela CellCycMod PI Cell Number IC50/EC50” value (HeLa cells; assay number 18, cell number) was 0.001 µM, the “Basal_Viability ATP SW480 IC50/EC50” value (SW480; assay number 24, basal) was 0.001 µM and the “Basal_Viability ATP HCT116 IC50/EC50” value (HCT116; assay number 25, basal) was 0.001 µM. For the same molecule, the “GSK3b inh pretreated_Viability ATP HCT116 IC50/EC50” value ([2]; assay number 26, GSK3b inhibitor pretreated) was 0.001 µM, the “Basal_Viability ATP Colo 320 IC50/EC50” value (Colo320; assay number 27, basal) was 0.001 µM and the “Basal_Viability ATP HT-29 IC50/EC50” value (HT-29) was 0.001 µM. For the same molecule, the “Basal_Viability ATP RKO IC50/EC50” value (RKO; assay number 29, basal) was 0.001 µM, the “Basal_Viability ATP SNU-C1 IC50/EC50” value (SNU-C1; assay number 30, basal) was over 20 µM and the “VEGF_ADSC\ECFC Angio Hoechst NucArea IC50/EC50” value [3] was over 10 µM.

CCN(CC)CCCC(C)Nc1c2ccc(Cl)cc2nc2ccc(OC)cc12 (stereo not shown) [Mepacrine] gave an EC50 [1, 8] of over 10 µM, an EC50 (INS-1E cells; [9]) of 4.07 µM and an EC50 (HeLa cells; [15]) of over 10 µM. For the same molecule, the IC50 (DLD-1; [5]) was 7.15 µM, the IC50 (SW480; [11]) was 3.6 µM and the IC50 (HCT116; [12]) was 5.81 µM. It also gave an IC50 [2, 13] of 4.48 µM, an IC50 (Colo320; Homo sapiens, COLO 320, read-out: Basal_Viability ATP Colo 320) of 8.44 µM and an IC50 (RKO; Homo sapiens, RKO, read-out: Basal_Viability ATP RKO) of 3.42 µM. It also gave an IC50 (SNU-C1; Homo sapiens, SNU-C1, basal, read-out: Basal_Viability ATP SNU-C1) of 3.84 µM.

CNC(=O)c1cc(Oc2ccc(NC(=O)Nc3ccc(Cl)c(C(F)(F)F)c3)cc2)ccn1 [Sorafenib, reference compound] was tested, and the “activity in the Wnt potentiation module (in words)” value [1] was “None of these agents, however, possessed appreciable activity”.

With OCCOc1ccccc1 [NCGC00090731-08] the “assay 1 Angio CD31 TubeArea max %inh” value ([4]; single concentration screen (2 and 10 μM), maximum of all test results, 0 = DMSO, 100 = positive control) was 8.6%, the “assay 4 WntCondMedia bCatenin fluor/nucarea C2C12 max %stim” value ([1]; single concentration screen (2 and 10 μM), maximum of all test results) was 0.5% and the “assay 7 5mMGluc INS1E InsulinRelease max %stim” value (INS-1E cells; single concentration screen (2 and 10 μM), 5 mM glucose, maximum of all test results) was 0.2%. For the same molecule, the “assay 11 hNCI-H716 GLP1 Secretion max %stim” value (NCI-H716 cells; single concentration screen (2 or 10 μM), maximum of all test results) was 3.7%.

For Cc1ccc(CCn2c3c(c4cc(Cl)ccc42)CN(C)CC3)cn1 [Dorastine], the IC50 ([4]; Homo sapiens, IC50 / EC50, endothelial tube area, ADSC/ECFC co-culture) was over 10 µM, the EC50 [1, 8] was over 10 µM and the EC50 (INS-1E cells; [9]) was 4.2 µM. It also gave an EC50 (HeLa cells; [15]) of over 10 µM, an IC50 (DLD-1; [10]) of over 20 µM and an IC50 (SW480; [11]) of 9.46 µM. For the same molecule, the IC50 (HCT116; [12]) was 13.4 µM and the IC50 [2, 13] was over 20 µM.
